Legend:
[1] = molecular target: T1, androgen receptor (AR-LBD) (Rattus norvegicus, UniProt P15207); assay: Evaluation of androgen receptor affinity (PolarScreen Androgen Receptor Competitor Assay Kit, Red; fluorescence polarization); details: 22° C. for 5 hours, relative to binding rate of 1 μM DHT, read-out: AR affinity (pEC50) (converted)
T1 construct: 5 μL of 2×AR-LBD/Fluoromone AL Red Complex contained in the kit; purchased Invitrogen
T1 sequence (P15207 651-882 limits assumed): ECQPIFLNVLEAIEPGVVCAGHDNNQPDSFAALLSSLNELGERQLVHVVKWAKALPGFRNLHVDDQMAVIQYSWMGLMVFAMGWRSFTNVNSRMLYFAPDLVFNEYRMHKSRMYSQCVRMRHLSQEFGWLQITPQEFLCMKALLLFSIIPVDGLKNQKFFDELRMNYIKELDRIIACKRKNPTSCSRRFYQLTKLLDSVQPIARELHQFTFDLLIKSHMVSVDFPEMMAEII
Outline: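 pEC50 values reflect tracer displacement from AR-LBD (Fluoromone AL Red complex) measured by fluorescence polarization after 5 h at 22° C, normalized to 1 μM DHT and fitted with a 4-parameter model.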

[2] = molecular target: T2, human androgen receptor (Homo sapiens, UniProt P10275); assay: Reporter assay of an androgen receptor responsive sequence (luciferase, transiently transfected HEK293 cells); format: cell-based; details: 24 hours incubation, relative to activity of 100 nM DHT, read-out: AR transcriptive activity (pEC50) (converted)
T2 construct: expressed in transfected cells; host or cells: HEK293
T2 sequence (P10275 1-920): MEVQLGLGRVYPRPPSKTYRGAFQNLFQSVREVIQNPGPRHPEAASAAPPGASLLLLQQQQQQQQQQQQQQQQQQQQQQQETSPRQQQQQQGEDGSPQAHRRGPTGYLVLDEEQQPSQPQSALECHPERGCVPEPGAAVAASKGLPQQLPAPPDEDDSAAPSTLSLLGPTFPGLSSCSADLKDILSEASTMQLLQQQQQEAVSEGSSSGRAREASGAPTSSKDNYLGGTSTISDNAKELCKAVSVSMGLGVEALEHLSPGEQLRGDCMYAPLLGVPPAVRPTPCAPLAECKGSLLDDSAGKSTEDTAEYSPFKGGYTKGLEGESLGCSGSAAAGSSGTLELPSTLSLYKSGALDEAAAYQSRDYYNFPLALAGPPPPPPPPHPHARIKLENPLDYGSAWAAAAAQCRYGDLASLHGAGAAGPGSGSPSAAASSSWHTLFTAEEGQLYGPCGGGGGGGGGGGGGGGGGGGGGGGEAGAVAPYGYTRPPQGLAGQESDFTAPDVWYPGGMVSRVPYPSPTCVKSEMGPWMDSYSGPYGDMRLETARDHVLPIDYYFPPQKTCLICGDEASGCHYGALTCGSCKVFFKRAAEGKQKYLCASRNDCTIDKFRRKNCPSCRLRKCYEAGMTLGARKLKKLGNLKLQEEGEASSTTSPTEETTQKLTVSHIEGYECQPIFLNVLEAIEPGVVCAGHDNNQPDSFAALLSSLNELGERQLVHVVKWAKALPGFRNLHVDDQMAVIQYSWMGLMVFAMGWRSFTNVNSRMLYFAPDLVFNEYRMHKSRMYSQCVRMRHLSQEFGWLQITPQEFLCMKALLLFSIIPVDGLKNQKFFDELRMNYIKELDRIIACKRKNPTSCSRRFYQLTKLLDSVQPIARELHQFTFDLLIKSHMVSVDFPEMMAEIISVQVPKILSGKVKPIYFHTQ
Outline: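 HEK293 cells transiently transfected for 3 h with ARE-firefly luciferase, full-length human AR and TK-Renilla plasmids, then exposed to compound for 24 h at 37 °C in 5% charcoal-treated FBS/DMEM. Dual-Glo luminescence read; pEC50 from 4-parameter fit relative to 100 nM DHT.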

SMILES	EC50 [1]	EC50 [2]
COCCCS(=O)(=O)NC(=O)c1nc(N(Cc2cnc(C(F)(F)F)c(F)c2)c2ccc(C#N)cc2)sc1C [Compound 533, 2-[4-cyano-N-[[5-fluoro-6-(trifluoromethyl)-3-pyridyl]methyl]anilino]-N-(3-methoxypropylsulfonyl)-5-methyl-thiazole-4-carboxamide]	0.158 µM	0.794 µM
Cc1sc(N(CCc2ccccc2Cl)Cc2ccccc2)nc1C(=O)NS(C)(=O)=O [Example 303, 2-[benzyl-[2-(2-chlorophenyl)ethyl]amino]-5-methyl-N-methylsulfonyl-thiazole-4-carboxamide]	0.126 µM	> 10 µM
COCCCS(=O)(=O)NC(=O)c1nc(N(CCc2ccc(C#N)cc2)Cc2ccc(OC(F)F)cc2)oc1C [Compound 557, 2-[2-(4-cyanophenyl)ethyl-[[4-(difluoromethoxy)phenyl]methyl]amino]-N-(3-methoxypropylsulfonyl)-5-methyl-oxazole-4-carboxamide]	0.0398 µM	0.631 µM
Cc1oc(N(Cc2ccc(Cl)cc2)c2ccc(C#N)cc2)nc1C(=O)NS(=O)(=O)C1CC1 [Compound 628, 2-[N-[(4-chlorophenyl)methyl]-4-cyano-anilino]-N-cyclopropylsulfonyl-5-methyl-oxazole-4-carboxamide]	0.2 µM	> 10 µM
COc1ccc(CCN(Cc2ccccc2)c2nc(C(=O)NS(C)(=O)=O)c(C)s2)cc1 [Compound 678, 2-[benzyl-[2-(4-methoxyphenyl)ethyl]amino]-5-methyl-N-methylsulfonyl-thiazole-4-carboxamide]	0.0501 µM	1.58 µM
COCCCS(=O)(=O)NC(=O)c1nc(N(CCc2ccc(OC(F)(F)F)cc2)Cc2nc(C3CC3)no2)oc1C [Compound 563, 2-[(3-cyclopropyl-1,2,4-oxadiazol-5-yl)methyl-[2-[4-(trifluoromethoxy)phenyl]ethyl]amino]-N-(3-methoxypropylsulfonyl)-5-methyl-oxazole-4-carboxamide]	0.0794 µM	1.58 µM
CCS(=O)(=O)NC(=O)c1nc(N(CCc2ccc(Cl)cc2)Cc2ccc(Cl)cc2)sc1C [Compound 693, 2-[2-(4-chlorophenyl)ethyl-[(4-chlorophenyl)methyl]amino]-N-ethylsulfonyl-5-methyl-thiazole-4-carboxamide]	0.0316 µM	0.2 µM
COc1ccc(CN(c2ccc(C#N)cc2)c2nc(C(=O)NS(C)(=O)=O)c(C)s2)cc1 [Compound 342, 2-[4-cyano-N-[(4-methoxyphenyl)methyl]anilino]-5-methyl-N-methylsulfonyl-thiazole-4-carboxamide]	0.0631 µM	0.0251 µM
Cc1sc(N(Cc2ccc3ncsc3c2)c2ccc(C#N)cc2)nc1C(=O)NS(C)(=O)=O [Compound 50, 2-[N-(1,3-benzothiazol-6-ylmethyl)-4-cyano-anilino]-5-methyl-N-methylsulfonyl-thiazole-4-carboxamide]	0.0794 µM	0.0501 µM
Cc1sc(N(Cc2ccoc2)c2ccc(C#N)cc2)nc1C(=O)NS(C)(=O)=O [Compound 86, 2-[4-cyano-N-(3-furylmethyl)anilino]-5-methyl-N-methylsulfonyl-thiazole-4-carboxamide]	0.251 µM	1.58 µM
COc1ccccc1CCN(c1ccc(C#N)cc1)c1nc(C(=O)NS(C)(=O)=O)c(C)s1 [Compound 376, 2-[4-cyano-N-[2-(2-methoxyphenyl)ethyl]anilino]-5-methyl-N-methylsulfonyl-thiazole-4-carboxamide]	0.1 µM	6.31 µM
Cc1sc(N(Cc2ccc(OC(F)(F)F)cc2)c2ccc(C#N)cc2)nc1C(=O)NS(=O)(=O)Cc1cccnc1 [Compound 121, 2-[4-cyano-N-[[4-(trifluoromethoxy)phenyl]methyl]anilino]-5-methyl-N-(3-pyridylmethylsulfonyl)thiazole-4-carboxamide]	0.0251 µM	0.0501 µM
Cc1sc(N(Cc2nc(C3CC3)no2)c2ccc(C#N)cc2)nc1C(=O)NS(C)(=O)=O [Example 196, 2-[4-cyano-N-[(3-cyclopropyl-1,2,4-oxadiazol-5-yl)methyl]anilino]-5-methyl-N-methylsulfonyl-thiazole-4-carboxamide]	0.631 µM	1.58 µM
Cc1sc(N(Cc2cnc(C3CC3)s2)c2ccc(C#N)cc2)nc1C(=O)NS(C)(=O)=O [Compound 466, 2-[4-cyano-N-[(2-cyclopropylthiazol-5-yl)methyl]anilino]-5-methyl-N-methylsulfonyl-thiazole-4-carboxamide]	0.1 µM	0.398 µM
Cc1sc(N(CCn2cc(C#N)cn2)Cc2ccc(Cl)cc2)nc1C(=O)NS(C)(=O)=O [Compound 736, 2-[(4-chlorophenyl)methyl-[2-(4-cyanopyrazol-1-yl)ethyl]amino]-5-methyl-N-methylsulfonyl-thiazole-4-carboxamide]	0.2 µM	0.501 µM
Cc1sc(N(Cc2ccc(-c3ccccc3F)nc2)c2ccc(C#N)cc2)nc1C(=O)NS(C)(=O)=O [Compound 591, 2-[4-cyano-N-[[6-(2-fluorophenyl)-3-pyridyl]methyl]anilino]-5-methyl-N-methylsulfonyl-thiazole-4-carboxamide]	0.158 µM	0.794 µM
Cc1sc(N(Cc2cc(F)cc(F)c2)c2ccc(C#N)cc2)nc1C(=O)NS(C)(=O)=O [Compound 96, 2-[4-cyano-N-[(3,5-difluorophenyl)methyl]anilino]-5-methyl-N-methylsulfonyl-thiazole-4-carboxamide]	0.0794 µM	0.1 µM
Cc1sc(N(CCC2CCCCC2)Cc2ccccc2)nc1C(=O)NS(C)(=O)=O [Example 298, 2-[benzyl(2-cyclohexylethyl)amino]-5-methyl-N-methylsulfonyl-thiazole-4-carboxamide]	0.1 µM	> 10 µM
CCS(=O)(=O)NC(=O)c1nc(N(CCc2ccc(C#N)cc2)CC2CCCCC2)sc1C [Compound 717, 2-[2-(4-cyanophenyl)ethyl-(cyclohexylmethyl)amino]-N-ethylsulfonyl-5-methyl-thiazole-4-carboxamide]	1 µM	> 10 µM
Cc1sc(N(Cc2cc(F)cc(OC(F)F)c2)c2ccc(C#N)cc2)nc1C(=O)NS(C)(=O)=O [Compound 518, 2-[4-cyano-N-[[3-(difluoromethoxy)-5-fluoro-phenyl]methyl]anilino]-5-methyl-N-methylsulfonyl-thiazole-4-carboxamide]	0.0251 µM	0.0398 µM
Cc1sc(N(Cc2ccc3c(c2)C(O)CC3)c2ccc(C#N)cc2)nc1C(=O)NS(C)(=O)=O (stereo not drawn) [Compound 484, 2-[4-cyano-N-[(3-hydroxyindan-5-yl)methyl]anilino]-5-methyl-N-methylsulfonyl-thiazole-4-carboxamide]	0.158 µM	0.126 µM
Cc1sc(N(CCCC(C)C)c2ccc(C#N)cc2)nc1C(=O)NS(C)(=O)=O [Compound 438, 2-(4-cyano-N-isohexyl-anilino)-5-methyl-N-methylsulfonyl-thiazole-4-carboxamide]	0.0251 µM	0.398 µM
CS(=O)(=O)NC(=O)c1nc(N(Cc2cccc(OC(F)(F)F)c2)c2ccc(C#N)cc2)sc1Br [Example 252, 5-bromo-2-[4-cyano-N-[[3-(trifluoromethoxy)phenyl]methyl]anilino]-N-methylsulfonyl-thiazole-4-carboxamide]	0.0316 µM	0.0794 µM
Cc1sc(N(CCc2ccc(Cl)cc2)c2ccc(C#N)cc2)nc1C(=O)NS(C)(=O)=O [Compound 133, 2-[N-[2-(4-chlorophenyl)ethyl]-4-cyano-anilino]-5-methyl-N-methylsulfonyl-thiazole-4-carboxamide]	0.158 µM	1.58 µM

Source: patent publication US10689354B2, “Aminoazole derivative” (Teijin Pharma Limited, priority 2015, dated 2020)
